Source: ChEMBL document CHEMBL5385944, “Hydrazyl hydroxycoumarins as new potential conquerors towards Pseudomonas aeruginosa” (Bioorg Med Chem Lett, 2024)

How the values were obtained:
Assay type in all cases: functional
Staphylococcus aureus [1] = experiment: Antibacterial activity against methicillin resistant Staphylococcus aureus assessed as reduction in bacterial growth by CLSI protocol based method
Staphylococcus aureus [2] = experiment: Antibacterial activity against methicillin resistant Staphylococcus aureus 43300 assessed as reduction in bacterial growth by CLSI protocol based method
Enterococcus faecalis = experiment: Antibacterial activity against Enterococcus faecalis assessed as reduction in bacterial growth by CLSI protocol based method
Staphylococcus aureus [3] = experiment: Antibacterial activity against Staphylococcus aureus ATCC 25923 assessed as reduction in bacterial growth by CLSI protocol based method
Staphylococcus aureus [4] = experiment: Antibacterial activity against Staphylococcus aureus ATCC 29213 assessed as reduction in bacterial growth by CLSI protocol based method
Klebsiella pneumoniae = experiment: Antibacterial activity against Klebsiella pneumoniae assessed as reduction in bacterial growth by CLSI protocol based method
Pseudomonas aeruginosa [5] = experiment: Antibacterial activity against Pseudomonas aeruginosa assessed as reduction in bacterial growth by CLSI protocol based method
Pseudomonas aeruginosa [6] = experiment: Antibacterial activity against Pseudomonas aeruginosa ATCC 27853 assessed as reduction in bacterial growth by CLSI protocol based method
Pseudomonas aeruginosa [7] = experiment: Antibacterial activity against Pseudomonas aeruginosa ATCC 10104 assessed as reduction in bacterial growth by CLSI protocol based method
Pseudomonas aeruginosa [8] = experiment: Antibacterial activity against Pseudomonas aeruginosa ATCC 90027 assessed as reduction in bacterial growth by CLSI protocol based method
Acinetobacter baumannii = experiment: Antibacterial activity against Acinetobacter baumannii assessed as reduction in bacterial growth by CLSI protocol based method
Escherichia coli = experiment: Antibacterial activity against Escherichia coli ATCC 25922 assessed as reduction in bacterial growth by CLSI protocol based method
[9] = Induction of drug resistance in Pseudomonas aeruginosa ATCC 27853 measured after 12 passages

Measured: MIC

O=C(N/N=C/c1c(O)ccc2ccc(=O)oc12)c1ccc(O)cc1
256 µg/mL: Klebsiella pneumoniae
not listed: [9]
512 µg/mL: all other assays above

O=c1ccc2ccc(O)c(/C=N/NS(=O)(=O)Cc3ccccc3)c2o1
38 µg/mL: Staphylococcus aureus [3]
16 µg/mL: Staphylococcus aureus [4]
128 µg/mL: Enterococcus faecalis
256 µg/mL: Staphylococcus aureus [1] | Escherichia coli
not listed: [9]
512 µg/mL: all other assays above

O=c1ccc2ccc(O)c(/C=N/NS(=O)(=O)c3cccc4ccccc34)c2o1
16 µg/mL: Staphylococcus aureus [2]
512 µg/mL: Enterococcus faecalis | Staphylococcus aureus [3] | Staphylococcus aureus [4] | Klebsiella pneumoniae
128 µg/mL: Pseudomonas aeruginosa [7]
64 µg/mL: Pseudomonas aeruginosa [5]
not listed: [9]
256 µg/mL: all other assays above

O=c1ccc2ccc(O)c(/C=N/Nc3ccc(S(=O)(=O)Nc4nccs4)cc3)c2o1
256 µg/mL: Staphylococcus aureus [3] | Staphylococcus aureus [4] | Pseudomonas aeruginosa [5] | Pseudomonas aeruginosa [6] | Pseudomonas aeruginosa [8] | Acinetobacter baumannii
not listed: [9]
512 µg/mL: all other assays above

Nc1ccc(C(=O)N/N=C/c2c(O)ccc3ccc(=O)oc23)cc1
32 µg/mL: Enterococcus faecalis
256 µg/mL: Klebsiella pneumoniae | Acinetobacter baumannii
not listed: Pseudomonas aeruginosa [8] | [9]
512 µg/mL: all other assays above

Cc1cc(NS(=O)(=O)c2ccc(N/N=C/c3c(O)ccc4ccc(=O)oc34)cc2)no1
512 µg/mL: Staphylococcus aureus [2] | Staphylococcus aureus [4] | Pseudomonas aeruginosa [5] | Pseudomonas aeruginosa [6] | Escherichia coli
not listed: [9]
256 µg/mL: all other assays above

COC(=O)N/N=C/c1c(O)ccc2ccc(=O)oc12
32 µg/mL: Pseudomonas aeruginosa [5]
128 µg/mL: Klebsiella pneumoniae | Pseudomonas aeruginosa [8] | Acinetobacter baumannii
256 µg/mL: Enterococcus faecalis | Pseudomonas aeruginosa [6]
64 µg/mL: Staphylococcus aureus [3]
1 µg/mL: Escherichia coli
not listed: [9]
512 µg/mL: all other assays above

N/N=C/c1c(O)ccc2ccc(=O)oc12
16 µg/mL: Staphylococcus aureus [3]
32 µg/mL: Escherichia coli
256 µg/mL: Acinetobacter baumannii
128 µg/mL: Staphylococcus aureus [1] | Staphylococcus aureus [2] | Klebsiella pneumoniae | Pseudomonas aeruginosa [6]
not listed: [9]
512 µg/mL: all other assays above

CCn1cc(C(=O)O)c(=O)c2cc(F)c(N3CCNCC3)cc21 [NORFLOXACIN]
8 µg/mL: Staphylococcus aureus [2]
5 µg/mL: Pseudomonas aeruginosa [7]
2 µg/mL: Staphylococcus aureus [3] | Staphylococcus aureus [4] | Pseudomonas aeruginosa [8] | Acinetobacter baumannii
128 µg/mL: [9]
4 µg/mL: all other assays above

Cc1ccc(S(=O)(=O)N/N=C/c2c(O)ccc3ccc(=O)oc23)cc1
256 µg/mL: Staphylococcus aureus [4] | Escherichia coli
not listed: [9]
512 µg/mL: all other assays above
